Our source for the IC50 and EC50 values is ChEMBL document CHEMBL1138824, “Design and synthesis of hydroxyethylene-based peptidomimetic inhibitors of human beta-secretase” (J Med Chem, 2004).

Residues, ends and D or L forms follow the SMILES beside them.

For one assay, the target named is Beta-secretase (BACE) (Homo sapiens, UniProt Q9Y5Z0+P56817). Nature of the assay: Inhibition of human beta secretase in MBP-C125 assay.
Conditions: not given
In kind it is protein assay.
As usually defined, the IC50 is the concentration at which inhibition is half-maximal. Higher therefore signals a need for much substance. For the compound `CCCN(CCC)C(=O)c1cccc(C(=O)N[C@@H](Cc2cc(F)cc(F)c2)[C@@H](O)CC(=O)N[C@H](C(=O)N[C@H]2C[C@@H](C(=O)O)C[C@@H](C(=O)O)C2)C(C)C)c1`, the half-maximal inhibitory concentration (IC50) came to 1 nM.

`CC(C)[C@H](NC(=O)C[C@H](O)[C@H](Cc1cc(F)cc(F)c1)NC(=O)C(O)c1ccccc1-c1ccccc1)C(=O)N[C@H]1C[C@@H](C(=O)O)C[C@@H](C(=O)O)C1` (some centres undefined) displayed an IC50 of 20 nM.

In turn, `CCCN(CCC)C(=O)c1cccc(C(=O)N[C@@H](Cc2cc(F)cc(F)c2)[C@@H](O)C[C@@H](CC(C)C)C(=O)NC[C@H]2CC[C@H](C(=O)O)CC2)c1` displayed a half-inhibitory concentration (IC50) of 310 nM. This IC50 is about 16-fold higher than that of the compound before.

`CSCC[C@H](NC(=O)[C@@H](NC(C)=O)C(C)C)C(=O)N[C@@H](CC(C)C)[C@@H](O)C[C@H](C(=O)N[C@@H](C)C(=O)N[C@@H](CCC(=O)O)C(=O)N[C@@H](Cc1ccccc1)C(=O)O)C(C)C` (HELM PEPTIDE1{[ac].V.M.[CC(C)C[C@H](N[*:1])[C@@H](O)C[C@H](C(=O)[*:2])C(C)C].A.E.F}$$$$V2.0): the IC50 came out at 30 nM.

The compound `CCCN(CCC)C(=O)c1cccc(C(=O)N[C@@H](Cc2cc(F)cc(F)c2)[C@@H](O)C[C@@H](CC)C(=O)NCCCCCCCC(=O)OC)c1` had an IC50 of 410 nM.

`CCCN(CCC)C(=O)c1cccc(C(=O)N[C@@H](Cc2cc(F)cc(F)c2)[C@@H](O)C[C@@H](CC)C(=O)NCCCCC(=O)O)c1` displayed an IC50 of 400 nM.

`CCCN(CCC)C(=O)c1cccc(C(=O)N[C@@H](Cc2cc(F)cc(F)c2)[C@@H](O)C[C@@H](CC)C(=O)NCc2ccccc2)c1`: the IC50 is recorded as 1400 nM. Against the preceding compound, the IC50 is about 3.5-fold higher.

The compound `CC(C)C[C@H](NC(=O)C(O)c1cccc2ccccc12)[C@@H](O)C[C@H](C(=O)N[C@@H](C)C(=O)N[C@@H](CCC(=O)O)C(=O)N[C@@H](Cc1ccccc1)C(=O)O)C(C)C` (some centres undefined) registered an IC50 of 7500 nM.

In turn, `CCC[C@H](C[C@H](O)[C@H](Cc1cc(F)cc(F)c1)NC(=O)c1cccc(C(=O)N(CCC)CCC)c1)C(=O)NC[C@H]1CC[C@H](C(=O)O)CC1` returned an IC50 of 45 nM.

On to `CCCN(CCC)C(=O)c1cccc(C(=O)N[C@@H](Cc2cc(F)cc(F)c2)[C@@H](O)C[C@@H](CC)C(=O)NC[C@H]2CC[C@H](C(=O)O)CC2)c1`, for which the IC50 was found to be 50 nM.

Compound `CCCN(CCC)C(=O)c1cccc(C(=O)N[C@@H](Cc2cc(F)cc(F)c2)[C@@H](O)C[C@@H](CC)C(=O)NCCCCCC(=O)O)c1` showed a half-maximal inhibitory concentration (IC50) of 240 nM.

Compound `CCCN(CCC)C(=O)c1cccc(C(=O)N[C@@H](Cc2cc(F)cc(F)c2)[C@@H](O)C[C@@H](C)C(=O)NCC(C)C)c1` had an IC50 of 30 nM.

Compound `CCCN(CCC)C(=O)c1cccc(C(=O)N[C@@H](Cc2cc(F)cc(F)c2)[C@@H](O)C[C@@H](C)C(=O)NC[C@H]2CC[C@H](C(=O)O)CC2)c1` returned an IC50 of 26 nM. This IC50 and that of the compound before are within 1.5-fold of each other.

`CCCN(CCC)C(=O)c1cccc(C(=O)N[C@@H](Cc2cc(F)cc(F)c2)[C@@H](O)C[C@@H](Cc2ccccc2)C(=O)NC[C@H]2CC[C@H](C(=O)O)CC2)c1` had an IC50 of 27000 nM. Compared with the last compound, the IC50 is about 1000-fold higher.

The compound `CCCN(CCC)C(=O)c1cccc(C(=O)N[C@@H](Cc2cc(F)cc(F)c2)[C@@H](O)C[C@@H](CC)C(=O)NCCCCCCCC(=O)O)c1` displayed an IC50 of 200 nM.

The compound `CCCN(CCC)C(=O)c1cccc(C(=O)N[C@@H](Cc2cc(F)cc(F)c2)[C@@H](O)CCC(=O)NC[C@H]2CC[C@H](C(=O)O)CC2)c1` gave an IC50 of 400 nM.

In turn, `CCCN(CCC)C(=O)c1cccc(C(=O)N[C@@H](Cc2cc(F)cc(F)c2)[C@@H](O)C[C@@H](CC)C(=O)NCCCC(=O)O)c1` came in with a half-maximal inhibitory concentration (IC50) of 310 nM.

With `CSCC[C@H](NC(=O)[C@@H](NC(=O)OC(C)(C)C)C(C)C)C(=O)N[C@@H](CC(C)C)[C@@H](O)C[C@@H](C)C(=O)N[C@H](C(=O)NCc1ccccc1)C(C)C`, the half-inhibitory concentration (IC50) is 3 nM.

`CCCN(CCC)C(=O)c1cccc(C(=O)N[C@@H](Cc2cc(F)cc(F)c2)[C@@H](O)C[C@@H](CC)C(=O)NCCC(=O)O)c1`: the IC50 stood at 2800 nM.

On to `CCCN(CCC)C(=O)c1cccc(C(=O)N[C@@H](Cc2cc(F)cc(F)c2)[C@@H](O)C[C@@H](CC)C(=O)N[C@H]2C[C@@H](OC)C[C@@H](OC)C2)c1`, for which the IC50 was 6600 nM.

In the case of `CC(C)C[C@H](NC(=O)C(O)c1cccc2ccccc12)[C@@H](O)CC(=O)N[C@H](C(=O)N[C@@H](C)C(=O)N[C@@H](CCC(=O)O)C(=O)N[C@@H](Cc1ccccc1)C(=O)O)C(C)C` (some centres undefined) (HELM PEPTIDE1{[O=C(C(O)c1cccc2ccccc12)[*:2]].[CC(C)C[C@H](N[*:1])[C@@H](O)CC(=O)[*:2]].V.A.E.F}$$$$V2.0), the IC50 turned out to be 4000 nM.

Another assay relates to HEK293. Nature of the assay: Effective concentration evaluated in HEK293 cells. It counts as functional, cell-based. The settings on record: Homo sapiens.
As usually defined, the EC50 is the concentration at which the effect is half-maximal. The compound `CCCN(CCC)C(=O)c1cccc(C(=O)N[C@@H](Cc2cc(F)cc(F)c2)[C@@H](O)CC(=O)N[C@H](C(=O)N[C@H]2C[C@@H](C(=O)O)C[C@@H](C(=O)O)C2)C(C)C)c1` came in with an EC50 of 1000 nM.

As to `CC(C)[C@H](NC(=O)C[C@H](O)[C@H](Cc1cc(F)cc(F)c1)NC(=O)C(O)c1ccccc1-c1ccccc1)C(=O)N[C@H]1C[C@@H](C(=O)O)C[C@@H](C(=O)O)C1` (some centres undefined), the EC50 is greater than 10000 nM.

`CCCN(CCC)C(=O)c1cccc(C(=O)N[C@@H](Cc2cc(F)cc(F)c2)[C@@H](O)C[C@@H](C)C(=O)NCC(C)C)c1` gave an EC50 of 3000 nM.
